# Measurements: patent publication US9181239B2, “Pyridopyrimidinone inhibitors of kinases” (AbbVie Inc., priority 2011, dated 2015)
# Molecular target: T1, Wee1 kinase (Homo sapiens, UniProt P30291)
# T1 construct: purchased Carnabio 05-177
# Assay: Wee1 time-resolved fluorescence equilibrium binding assay (probe displacement)
# Settings: GST-tagged-Wee1 kinase 2 nM, fluorescent probe 300 nM, 1 hour incubation; read-out: Wee-1 binding (Ki nM)
# Description: Wee1 kinase was assayed using a time-resolved fluorescence equilibrium binding assay monitoring displacement of a rapidly reversible Oregon Green-labeled ATP-competitive kinase probe (N-(2-(2-(2-(4-(4-(5-chloro-4-(2-(1-hydroxycyclobutyl)thiazol-5-yl)-1H-pyrrolo[2,3-b]pyridin-2-yl)phenyl)piperazin-1-yl)ethoxy)ethoxy)ethyl)-2′,7′-difluoro-3′,6′-dihydroxy-3-oxo-3H-spiro[isobenzofuran-1,9′-xanthene]-5-carboxamide) by competitive Wee1 inhibitors.
# T1 sequence (P30291 whole entry): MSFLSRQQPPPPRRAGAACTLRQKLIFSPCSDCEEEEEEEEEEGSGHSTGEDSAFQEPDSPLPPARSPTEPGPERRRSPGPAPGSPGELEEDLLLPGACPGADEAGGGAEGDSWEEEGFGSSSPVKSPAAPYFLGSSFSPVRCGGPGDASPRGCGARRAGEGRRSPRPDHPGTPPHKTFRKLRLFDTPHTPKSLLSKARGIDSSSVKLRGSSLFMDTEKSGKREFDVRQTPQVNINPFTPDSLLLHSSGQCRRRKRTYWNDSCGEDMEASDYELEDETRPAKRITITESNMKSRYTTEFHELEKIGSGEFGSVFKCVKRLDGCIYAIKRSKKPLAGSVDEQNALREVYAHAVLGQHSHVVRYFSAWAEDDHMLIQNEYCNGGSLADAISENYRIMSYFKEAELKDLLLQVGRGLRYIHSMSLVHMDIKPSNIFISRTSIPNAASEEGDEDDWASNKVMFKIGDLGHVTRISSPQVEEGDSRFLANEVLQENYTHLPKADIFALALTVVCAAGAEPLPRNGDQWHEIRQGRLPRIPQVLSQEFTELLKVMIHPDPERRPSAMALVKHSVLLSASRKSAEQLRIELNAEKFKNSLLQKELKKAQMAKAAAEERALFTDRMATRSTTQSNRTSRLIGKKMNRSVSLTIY
row,SMILES,Ki [nM]
1,"CN1CCN(c2ccc(Nc3ncc4c(=O)c(-c5ccccc5Cl)c[nH]c4n3)cc2)CC1 [Example 1, 6-(2-chlorophenyl)-2-{[4-(4-methylpiperazin-1-yl)phenyl]amino}pyrido[2,3-d]pyrimidin-5(8H)-one]",9.5
2,"CN1CCN(c2ccc(Nc3ncc4c(=O)c(-c5ccccc5Cl)cn(-c5ccccc5)c4n3)cc2)CC1 [Example 2, 6-(2-chlorophenyl)-2-{[4-(4-methylpiperazin-1-yl)phenyl]amino}-8-phenylpyrido[2,3-d]pyrimidin-5(8H)-one]",2.4
3,"CN1CCN(c2ccc(Nc3ncc4c(=O)c(-c5ccccc5Cl)c(-c5ccccc5)[nH]c4n3)cc2)CC1 [Example 3, 6-(2-chlorophenyl)-2-{[4-(4-methylpiperazin-1-yl)phenyl]amino}-7-phenylpyrido[2,3-d]pyrimidin-5(8H)-one]",37
4,"CN1CCN(c2ccc(Nc3ncc4c(=O)c(-c5c(Cl)cccc5Cl)cn(-c5ccccc5)c4n3)cc2)CC1 [Example 4, 6-(2,6-dichlorophenyl)-2-{[4-(4-methylpiperazin-1-yl)phenyl]amino}-8-phenylpyrido[2,3-d]pyrimidin-5(8H)-one]",0.1
5,"CN1CCN(c2ccc(Nc3ncc4c(=O)c(-c5ccccc5Cl)cn(C)c4n3)cc2)CC1 [Example 5, 6-(2-chlorophenyl)-8-methyl-2-{[4-(4-methylpiperazin-1-yl)phenyl]amino}pyrido[2,3-d]pyrimidin-5(8H)-one]",3.7
6,"CN1CCN(c2ccc(Nc3ncc4c(=O)c(-c5c(Cl)cccc5Cl)c5n(c4n3)CCC5)cc2)CC1 [Example 6, 6-(2,6-dichlorophenyl)-2-{[4-(4-methylpiperazin-1-yl)phenyl]amino}-8,9-dihydropyrimido[4,5-e]indolizin-5(7H)-one]",5.7
7,"CN1CCN(c2ccc(Nc3ncc4c(=O)c(-c5c(Cl)cccc5Cl)cn(-c5ccncc5)c4n3)cc2)CC1 [Example 7, 6-(2,6-dichlorophenyl)-2-{[4-(4-methylpiperazin-1-yl)phenyl]amino}-8-(pyridin-4-yl)pyrido[2,3-d]pyrimidin-5(8H)-one]",0.6
8,"CN1CCN(c2ccc(Nc3ncc4c(=O)c(-c5c(Cl)cccc5Cl)cn(C)c4n3)cc2)CC1 [Example 8, 6-(2,6-dichlorophenyl)-8-methyl-2-{[4-(4-methylpiperazin-1-yl)phenyl]amino}pyrido[2,3-d]pyrimidin-5(8H)-one]",0.3
9,"CN1CCN(c2ccc(Nc3ncc4c(=O)c(-c5c(Cl)cccc5Cl)cn(-c5ccc(F)cc5)c4n3)cc2)CC1 [Example 9, 6-(2,6-dichlorophenyl)-8-(4-fluorophenyl)-2-{[4-(4-methylpiperazin-1-yl)phenyl]amino}pyrido[2,3-d]pyrimidin-5(8H)-one]",< 1
10,"CN1CCN(c2ccc(Nc3ncc4c(=O)c(-c5c(Cl)cccc5Cl)cn(C5CC5)c4n3)cc2)CC1 [Example 10, 8-cyclopropyl-6-(2,6-dichlorophenyl)-2-{[4-(4-methylpiperazin-1-yl)phenyl]amino}pyrido[2,3-d]pyrimidin-5(8H)-one]",< 1
11,"CN1CCN(c2ccc(Nc3ncc4c(=O)c(-c5c(Cl)cccc5Cl)cn(CC(F)(F)F)c4n3)cc2)CC1 [Example 11, 6-(2,6-dichlorophenyl)-2-{[4-(4-methylpiperazin-1-yl)phenyl]amino}-8-(2,2,2-trifluoroethyl)pyrido[2,3-d]pyrimidin-5(8H)-one]",3
12,"CN1CCN(c2ccc(Nc3ncc4c(=O)c(-c5c(Cl)cccc5Cl)cn(Cc5ccncc5)c4n3)cc2)CC1 [Example 12, 6-(2,6-dichlorophenyl)-2-{[4-(4-methylpiperazin-1-yl)phenyl]amino}-8-(pyridin-4-ylmethyl)pyrido[2,3-d]pyrimidin-5(8H)-one]",14
13,"CN(C)CCn1cc(-c2c(Cl)cccc2Cl)c(=O)c2cnc(Nc3ccc(N4CCN(C)CC4)cc3)nc21 [Example 13, 6-(2,6-dichlorophenyl)-8-[2-(dimethylamino)ethyl]-2-{[4-(4-methylpiperazin-1-yl)phenyl]amino}pyrido[2,3-d]pyrimidin-5(8H)-one]",24
14,"CN1Cc2cc(Nc3ncc4c(=O)c(-c5c(Cl)cccc5Cl)cn(C)c4n3)ccc2C2(CC2)C1 [Example 14, 6-(2,6-dichlorophenyl)-8-methyl-2-[(2′-methyl-2′,3′-dihydro-1′H-spiro[cyclopropane-1,4′-isoquinolin]-7′-yl)amino]pyrido[2,3-d]pyrimidin-5(8H)-one]",0.3
15,"CN1CCN(c2ccc(Nc3ncc4c(=O)c(-c5c(Cl)cccc5Cl)cn(C5CCC5)c4n3)cc2)CC1 [Example 15, 8-cyclobutyl-6-(2,6-dichlorophenyl)-2-{[4-(4-methylpiperazin-1-yl)phenyl]amino}pyrido[2,3-d]pyrimidin-5(8H)-one]",0.6
16,"CN1CCN(c2ccc(Nc3ncc4c(=O)c(-c5c(Cl)cccc5Cl)cn(CC(C)(C)O)c4n3)cc2)CC1 [Example 16, 6-(2,6-dichlorophenyl)-8-(2-hydroxy-2-methylpropyl)-2-{[4-(4-methylpiperazin-1-yl)phenyl]amino}pyrido[2,3-d]pyrimidin-5(8H)-one]",20
17,"CN1Cc2cc(Nc3ncc4c(=O)c(-c5c(Cl)cccc5Cl)cn(C5CC5)c4n3)ccc2C2(CC2)C1 [Example 17, 8-cyclopropyl-6-(2,6-dichlorophenyl)-2-[(2′-methyl-2′,3′-dihydro-1′H-spiro[cyclopropane-1,4′-isoquinolin]-7′-yl)amino]pyrido[2,3-d]pyrimidin-5(8H)-one]",0.2
18,"CN1CCN(c2ccc(Nc3ncc4c(=O)c(-c5c(Cl)cccc5Cl)c[nH]c4n3)cc2)CC1 [Example 18, 6-(2,6-dichlorophenyl)-2-{[4-(4-methylpiperazin-1-yl)phenyl]amino}pyrido[2,3-d]pyrimidin-5(8H)-one]",0.3
19,"Cc1cc(Nc2ncc3c(=O)c(-c4c(Cl)cccc4Cl)cn(C)c3n2)ccc1N1CCCN(C)CC1 [Example 19, 6-(2,6-dichlorophenyl)-8-methyl-2-{[3-methyl-4-(4-methyl-1,4-diazepan-1-yl)phenyl]amino}pyrido[2,3-d]pyrimidin-5(8H)-one]",0.3
20,"CN1Cc2cc(Nc3ncc4c(=O)c(-c5c(Cl)cccc5Cl)cn(C)c4n3)ccc2C(C)(C)C1 [Example 20, 6-(2,6-dichlorophenyl)-8-methyl-2-[(2,4,4-trimethyl-1,2,3,4-tetrahydroisoquinolin-7-yl)amino]pyrido[2,3-d]pyrimidin-5(8H)-one]",0.3
21,"Cn1cc(-c2c(Cl)cccc2Cl)c(=O)c2cnc(Nc3ccc4c(c3)CNCC43CC3)nc21 [Example 21, 6-(2,6-dichlorophenyl)-2-(2′,3′-dihydro-1′H-spiro[cyclopropane-1,4′-isoquinolin]-7′-ylamino)-8-methylpyrido[2,3-d]pyrimidin-5(8H)-one]",0.3
22,"CN(C)C1Cc2ccc(Nc3ncc4c(=O)c(-c5c(Cl)cccc5Cl)cn(C)c4n3)cc2C1 (centres unmarked) [Example 22, 6-(2,6-dichlorophenyl)-2-{[2-(dimethylamino)-2,3-dihydro-1H-inden-5-yl]amino}-8-methylpyrido[2,3-d]pyrimidin-5(8H)-one]",0.6
23,"CN1Cc2cc(Nc3ncc4c(=O)c(-c5c(Cl)cccc5Cl)cn(C5CC5)c4n3)ccc2C(C)(C)C1 [Example 23, 8-cyclopropyl-6-(2,6-dichlorophenyl)-2-[(2,4,4-trimethyl-1,2,3,4-tetrahydroisoquinolin-7-yl)amino]pyrido[2,3-d]pyrimidin-5(8H)-one]",0.8
